In patent US10426768B2, “Subcutaneous delivery of polymer conjugates of therapeutic agents” (Serina Therapeutics, Inc., priority 2011, dated 2019):
Read-outs that look alike come from different tables or passages of the source.

Assays:
[1] = man; cited from earlier work
[2] = Pharmacokinetics of rotigotine in rat after intravenous and subcutaneous administration of POZ conjugates; assay type: in vivo, male Sprague-Dawley rats; settings: for PK profile of plasma rotigotine, in words / Cmax values of plasma rotigotine: rat; for PK profile of plasma rotigotine, in words: SC compared with IV; for Cmax values of plasma rotigotine: at 12 hours, dosed SC at 1.6 mg/kg
Experimental: In order to study the pharmacokinetics of the POZ conjugates described herein, in vivo studies were conducted with male Sprague-Dawley rats. Twenty-seven male cannulated Sprague-Dawley rats (300-350 g) were divided into nine groups of 3 animals per group. Groups I-II received a single subcutaneous (SC) dose (right flank) of POZ acetyl rotigotine (as described in Example 6) at equivalent doses of 1.6 and 6.4 mg/kg. […] Group V received a single subcutaneous (SC) dose (right flank) of rotigotine hydrochloride at an equivalent dose of 0.5 mg/kg. Groups VI-VII received a single intravenous (IV) dose (lateral tail vein) of POZ acetyl rotigotine (as described in Example 6) at equivalent doses of 0.5 and 2.0 mg/kg. […] The test articles were dissolved in 5% dextrose injection and filtered prior to each injection. Serial blood samples were obtained from each intravenously dosed animal through the cannulated catheter, at time intervals of end of injection, 12, 24, 48, 96 and 168 hours. The time intervals for the subcutaneously dosed animals were 6, 12, 24, 48, 96 and 168 hours. The blood was processed to collect the plasma which was stored at −70° C. before analysis. The plasma samples were extracted with acetonitrile using d3-rotigotine as an internal standard and the analytes in the extract were assayed by chromatographic analysis on LC/MS-MS system using a C-18 reverse phase column with 0.9 um silica coreshell (Accucore™, Thermo Scientific, 30×2.1 mm ID and 2.6 micron particle size). The mobile phase was ammonium formate 10 mM pH3.0 (solvent A); and 90% acetonitrile, 10% methanol, and 0.1% formic acid (solvent B), eluting at 0.6 mL/min.

[3] = rats; cited from earlier work
6-OHDA Rat Model [4] = experiment: Rotational test in the 6-OHDA rat model, single subcutaneous dose; assay type: in vivo, female Sprague-Dawley rats
Experimental: (§1) In order to study the efficacy of the POZ conjugates described herein, in vivo studies were conducted with female Sprague-Dawley rats. Female Sprague-Dawley rats (275-350 g) were used in the study. Each animal underwent stereotaxic surgery and received a unilateral lesion of the right nigrostriatal pathway via injection of 12.5 μg of 6-hydroxydopamine (6-OHDA) into a single site in the medial forebrain bundle. Rats were monitored over two weeks and underwent behavioral assessment (on day −7) via the cylinder test. Animals lacking overt behavioral asymmetry ([…] ipsilateral forelimb use) were excluded from the study. The rats were them randomly assigned to one of six treatment groups (each N=8). […] The rats received a single subcutaneous dose (2 mL/kg) of vehicle (5% dextrose) or test compound dissolved in 5% dextrose.
(§2) Each group of animals (A-F as described above) were independently assessed rat for rotational behavior and forelimb symmetry on day 1, day 2, day 5 and day 9. In the rotational test, the animals were placed in an automated rotometer apparatus (MedAssociates, USA) and the net number of rotations contraversive to the lesion were recorded over a period of 6 hours on each day. In the forelimb symmetry test, the rats are placed in a clear glass cylinder without top (15 cm diameter×45 cm tall). The number of times each paw touches the side of the cylinder during an individual rear is recorded over a 10 minute observation on each day. The first limb in any rear to touch the wall is scored a single point. If both limbs contact within 0.4 s of each other, then this is scored as a ‘both’. All subsequent exploratory movements about the wall using that limb are scored independently until the other limb contacts the wall with weight support. Alternating stepping motions involving both paws one after the other receive a single score for both. The net number of contralateral touches are calculated and considered a favorable response.

6-OHDA Rat Model [5] = experiment: Forelimb asymmetry (cylinder) test in the 6-OHDA rat model, single subcutaneous dose; assay type: in vivo, female Sprague-Dawley rats
Experimental: as §1, §2

[6] = oral; cited from earlier work
[7] = Water solubility of the produced polyoxazoline conjugate; assay type: physicochemical
[8] = Pharmacokinetics of rotigotine in monkey after subcutaneous administration of POZ conjugates; assay type: in vivo, female macaques (Cynomolgus monkeys); settings: for average terminal plasma half-life (t½) of rotigotine: one subcutaneous dose, 1.5 or 4.5 mg/kg rotigotine equivalents
Experimental: The pharmacokinetics of the POZ conjugates of rotigotine was measured in normal, treatment-naïve female macaques. Animals were randomly assigned into four treatment groups, each N=3. […] The test articles were dissolved in 5% dextrose injection and filtered prior to each injection. Serial venous blood samples were obtained from each animal prior to administration of experimental agents on Day 1 and subsequently at 15 min, 30 min, 1 h, 2 h, 4 h, 6 h, 8 h, 24 h, 48 h, 96 h, 192 h, 240 h and 336 h. The blood was processed to collect the plasma which was stored at −70° C. before analysis. These plasma samples were processed and assayed by chromatographic analysis on LC/MS-MS system as described in Example 31.

Compound	terminal plasma half-life (t½) of rotigotine ([2]; rat plasma, IV or SC dosing) [h]	PK profile of plasma rotigotine, in words [2]	Cmax values of plasma rotigotine [2] [ng/mL]	Net number of contraversive turns/6 h period (Average ± SEM; n = 8) (6-OHDA Rat Model [4]; 1.6 mg/kg SC, Day 1) [turns/6 h period]	Net number of contraversive turns/6 h period (Average ± SEM; n = 8) (6-OHDA Rat Model [4]; 1.6 mg/kg SC, Day 5) [turns/6 h period]	water solubility, in words [7]	Net ipsiversive forelimb use as a percentage of total forelimb use (Average ± SEM; n = 8) (6-OHDA Rat Model [5]; 1.6 mg/kg SC, Day 2) [%]	Net ipsiversive forelimb use as a percentage of total forelimb use (Average ± SEM; n = 8) (6-OHDA Rat Model [5]; 1.6 mg/kg SC, Day 5) [%]	average terminal plasma half-life (t½) of rotigotine [8] [h]	also measured
CCCN(CCc1cccs1)[C@H]1CCc2c(O)cccc2C1 [Rotigotine, S(−)-2-(N-propyl-N-2-thienylethylamino)-5-hydroxytetralin, reference compound]										half-life [1]: 2.5 h; half-life ([2]; male, Sprague-Dawley, subcutaneous, 0.5 mg/kg, rat plasma, IV or SC dosing, read-out: terminal plasma half-life (t½) of rotigotine (converted)): 2.8 h; oral and intraperitoneal bioavailability [3]: less than 10%; Net number of contraversive turns/6 h period (Average ± SEM; n = 8) (6-OHDA Rat Model [4]; 0.5 mg/kg SC, Day 1): 983 ± 405 turns/6 h period; Net number of contraversive turns/6 h period (Average ± SEM; n = 8) (6-OHDA Rat Model [4]; 0.5 mg/kg SC, Day 5): −49 ± 9 turns/6 h period; Net number of contraversive turns/6 h period (Average ± SEM; n = 8) (6-OHDA Rat Model [4]; 3.0 mg/kg SC, Day 1): 1570 ± 312 turns/6 h period; Net number of contraversive turns/6 h period (Average ± SEM; n = 8) (6-OHDA Rat Model [4]; 3.0 mg/kg SC, Day 5): −39 ± 15 turns/6 h period; Net ipsiversive forelimb use as a percentage of total forelimb use (Average ± SEM; n = 8) (6-OHDA Rat Model [5]; 0.5 mg/kg SC, Day 2): 60 ± 13%; Net ipsiversive forelimb use as a percentage of total forelimb use (Average ± SEM; n = 8) (6-OHDA Rat Model [5]; 0.5 mg/kg SC, Day 5): 94 ± 6%; Net ipsiversive forelimb use as a percentage of total forelimb use (Average ± SEM; n = 8) (6-OHDA Rat Model [5]; 3.0 mg/kg SC, Day 2): 9 ± 13%; Net ipsiversive forelimb use as a percentage of total forelimb use (Average ± SEM; n = 8) (6-OHDA Rat Model [5]; 3.0 mg/kg SC, Day 5): 85 ± 8%
N[C@@H](Cc1ccc(O)c(O)c1)C(=O)O [levodopa]										bioavailability [6]: less than 10%
H-[(Acetyl-Rotigotine)10(EOZ)190]—COOH 20K [POZ acetyl rotigotine]	16	essentially the same PK profile when delivered either SC or IV	48	872 ± 232	−14 ± 14	good water solubility	50 ± 13	85 ± 10		
H-[(Propionyl-Rotigotine)10(EOZ)190]—COOH 20K [POZ propyl rotigotine]	60	markedly prolonged PK profile that is near “zero order” kinetics	6	1408 ± 286	68 ± 60	good water solubility	0 ± 14	31 ± 13	60	PK profile of plasma rotigotine, in words ([8]; subcutaneous): markedly prolonged PK profile that is near “zero order” kinetics; Net number of contraversive turns/6 h period (Average ± SEM; n = 8) (6-OHDA Rat Model [4]; 6.4 mg/kg SC, Day 1): 1272 ± 405 turns/6 h period; Net number of contraversive turns/6 h period (Average ± SEM; n = 8) (6-OHDA Rat Model [4]; 6.4 mg/kg SC, Day 5): 5142 ± 777 turns/6 h period; rotational activity, in words (6-OHDA Rat Model [4]; day 5, high dose of 6.4 mg/kg): marked and continuous contraversive rotations; Net ipsiversive forelimb use as a percentage of total forelimb use (Average ± SEM; n = 8) (6-OHDA Rat Model [5]; 6.4 mg/kg SC, Day 2): −2 ± 26%; Net ipsiversive forelimb use as a percentage of total forelimb use (Average ± SEM; n = 8) (6-OHDA Rat Model [5]; 6.4 mg/kg SC, Day 5): −6 ± 16%; forelimb use activity, in words (6-OHDA Rat Model [5]; day 5, both doses of 1.6 and 6.4 mg/kg): marked and continuous ipsiversive forelimb use
H-[(α-Methyl-Acetyl-Rotigotine)10(EOZ)190]—COOH 20K [POZ alpha methyl acetyl rotigotine]						good water solubility			9	
